Source: US20110224297A1, “Methods of administering prostratin and structural analogs thereof” (priority 2008, published 2011)

Experiments:
[1] = system: resting CD4+ T cells derived from HIV positive patients; assay: Induction of HIV-1 expression in resting CD4+ T cells from HIV positive patients on HAART (p24, co-culture); type: cell-based, human; settings: VPA at 1 mM added to cultures treated with prostratin
Method: The ability of prostratin to induce HIV-1 expression in cultures of highly purified resting CD4+ T cells derived from six HIV positive patients on HAART therapy with undetectable plasma viral load (<50 copies/ml) and CD4 cell counts above 350 cells/mm^3 was evaluated. PBMCs were separated using Ficol Hypaque gradient and resting CD4+ T cells were purified using commercially available CD4+ T cell isolation kit (Miltenyi Biotec) Immediately after purification, resting CD4+ T cells were treated for 3 days with two antiretrovirals to which the patient had not previously been exposed. Antiretrovirals were used at concentrations 10 times the 50% inhibitory concentration for wild-type HIV-1 to ensure elimination of any actively replicating virus. Three days after in vitro incubation with antiretrovirals, cells were washed and incubated for 5 h, 24 h, or 48 h with prostratin (50-500 ng/ml), in the absence or presence of 1 mM valproic acid (sodium salt, SIGMA), 10 μg/ml PHA (SIGMA), 50 U IL-2/ml (AIDS depository of reagents, NIH), or in the absence of drugs. At the end of each incubation period, cells were co-cultured with CD8-depleted PBMCs from healthy donors. P24 was measured at days 0, 4, 7, 14, 21, 28, 35 and 42 days.

[2] = In vitro metabolism in rat primary hepatocytes; type: in vitro ADME
Method: (§1) ^3H-Prostratin was incubated in hepatocyte preparations with 0.75×10^6 hepatocytes/ml for 0, 30, 60, and 120 minutes. Hepatocytes were suspended in William's E medium and incubated with 1 μM or 4 μM ^3H-Prostratin at 37° C. in an atmosphere of 4.7-4.8% CO2. Hepatocyte incubations were terminated by addition of acetonitrile. Incubations were profiled for ^3H-Prostratin and metabolites by high performance liquid chromatography using a radioactivity detector.
(§2) Metabolites were subsequently analyzed by liquid chromatography/tandem mass spectrometry (LC/MS/MS) for putative identification. Seven predominant metabolites, identified as M1 through M6 according to their chromatographic order of elution, were detected among both genders of the three species, including two co-eluting metabolites labeled as M3A or M3B. Among the seven metabolites, five were putatively identified by LC/MS/MS, while structures could not be proposed for M2 and M3B.

[3] = Quantitative whole body autoradiography of rats following oral administration; type: in vivo, Long Evans rats
Method: The absorption and distribution of ^3H-Prostratin were studied in male and female rats following a single oral administration at 0.2 mg/kg. Four Long Evans male and four Long Evans female rats, after an overnight fast, each received a single oral administration of ^3H-Prostratin as a solution in saline containing <1% of ethanol at a target dose of 0.2 mg/kg. For both males and females, one animal per time point per sex was sacrificed at 1, 4, 8, and 24 hours postdose and carcasses were prepared for whole-body autoradiography (WBA). Blood, plasma, and cellular fraction were analyzed by using liquid scintillation counting (LSC).

[4] = Extent of metabolism by hepatocytes, rank order across species and genders; type: in vitro ADME, rat, monkey, human; settings: 1 μM and 4 μM; up to 120 minutes
Method: as §1, §2

[5] = In vitro metabolism in monkey primary hepatocytes; type: in vitro ADME; settings: monkey hepatocytes of both genders
Method: as §1, §2

[6] = In vitro metabolism in human primary hepatocytes; type: in vitro ADME
Method: as §1, §2

[7] = female rats, single oral 0.2 mg/kg
[8] = male rats, single oral 0.2 mg/kg

Compound	enhancement of HIV-1 replication beyond the prostratin effect [1]	number of metabolites detected ([2]; female rat hepatocytes)	number of metabolites detected ([2]; male rat hepatocytes)	gender difference in metabolism ([2]; male rat versus female rat hepatocytes)	maximum blood concentration of radioactivity [3, 7]	maximum plasma concentration of radioactivity [3, 7]	time of maximum blood and plasma concentrations of radioactivity [3, 7]	gender-related difference in tissue distribution of radioactivity ([3]; female versus male rats)	tissue distribution of radioactivity ([3]; male and female rats, single oral 0.2 mg/kg)	maximum blood concentration of radioactivity [3, 8]	maximum plasma concentration of radioactivity [3, 8]	time of maximum blood concentration of radioactivity [3, 8]	time of maximum plasma concentration of radioactivity [3, 8]	extent of metabolism by hepatocytes, rank order [4]	number of metabolites produced [5]	number of metabolites produced ([6]; both genders of human hepatocytes)	extent of metabolism in human compared with male monkeys ([6]; human hepatocytes)	unique human metabolites ([6]; human hepatocytes)
CCCC(CCC)C(=O)O [VPA, valproic acid, reference compound]	did not significantly enhance																	
CC(=O)O[C@@]12C[C@@H](C)[C@@]3(O)[C@@H](C=C(CO)C[C@]4(O)C(=O)C(C)=C[C@@H]34)[C@@H]1C2(C)C [^3H-Prostratin]		two	Six	more rapid metabolism	59.7 ng equivalents ^3H-Prostratin/g	63.7 ng equivalents ^3H-Prostratin/g	1 hour postdose	distributed more widely in female tissues than male tissues	Most of the radioactivity was found in the gastrointestinal (GI) tract	30.5 ng equivalents ^3H-Prostratin/g	53.5 ng equivalents ^3H-Prostratin/g	1 hours postdose	4 hours postdose	male monkey>male rat>>female monkey≈male human≈female human>female rat	five	Five	considerably lower	no unique human metabolites
